Common to all, as to assay: KINOMEscan competitive binding, whole panel
Test [1] concerns the target T1, panel of 203 kinases (Homo sapiens, UniProt P06239).
T1 construct: purchased DiscoverX (KINOMEscan)
The conditions noted are these: 10 µM, n=1; kinase LCK; read-out: Percent inhibition LCK. The method in brief: (§1)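 Read-out is the amount of kinase still captured on an immobilized ATP-site probe after exposure to test compound, expressed as percentage inhibition.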

The target in test [2] is T2, panel of 203 kinases (Homo sapiens, UniProt Q15759).
T2 construct: purchased DiscoverX (KINOMEscan)
The conditions noted are these: 10 µM, n=1; kinase p38-beta; read-out: Percent inhibition p38-beta. The procedure, abridged:
as §1

In test [3] the target is T3, panel of 203 kinases (Homo sapiens, UniProt P08581).
T3 construct: purchased DiscoverX (KINOMEscan)
T3 sequence (P08581 25-1390): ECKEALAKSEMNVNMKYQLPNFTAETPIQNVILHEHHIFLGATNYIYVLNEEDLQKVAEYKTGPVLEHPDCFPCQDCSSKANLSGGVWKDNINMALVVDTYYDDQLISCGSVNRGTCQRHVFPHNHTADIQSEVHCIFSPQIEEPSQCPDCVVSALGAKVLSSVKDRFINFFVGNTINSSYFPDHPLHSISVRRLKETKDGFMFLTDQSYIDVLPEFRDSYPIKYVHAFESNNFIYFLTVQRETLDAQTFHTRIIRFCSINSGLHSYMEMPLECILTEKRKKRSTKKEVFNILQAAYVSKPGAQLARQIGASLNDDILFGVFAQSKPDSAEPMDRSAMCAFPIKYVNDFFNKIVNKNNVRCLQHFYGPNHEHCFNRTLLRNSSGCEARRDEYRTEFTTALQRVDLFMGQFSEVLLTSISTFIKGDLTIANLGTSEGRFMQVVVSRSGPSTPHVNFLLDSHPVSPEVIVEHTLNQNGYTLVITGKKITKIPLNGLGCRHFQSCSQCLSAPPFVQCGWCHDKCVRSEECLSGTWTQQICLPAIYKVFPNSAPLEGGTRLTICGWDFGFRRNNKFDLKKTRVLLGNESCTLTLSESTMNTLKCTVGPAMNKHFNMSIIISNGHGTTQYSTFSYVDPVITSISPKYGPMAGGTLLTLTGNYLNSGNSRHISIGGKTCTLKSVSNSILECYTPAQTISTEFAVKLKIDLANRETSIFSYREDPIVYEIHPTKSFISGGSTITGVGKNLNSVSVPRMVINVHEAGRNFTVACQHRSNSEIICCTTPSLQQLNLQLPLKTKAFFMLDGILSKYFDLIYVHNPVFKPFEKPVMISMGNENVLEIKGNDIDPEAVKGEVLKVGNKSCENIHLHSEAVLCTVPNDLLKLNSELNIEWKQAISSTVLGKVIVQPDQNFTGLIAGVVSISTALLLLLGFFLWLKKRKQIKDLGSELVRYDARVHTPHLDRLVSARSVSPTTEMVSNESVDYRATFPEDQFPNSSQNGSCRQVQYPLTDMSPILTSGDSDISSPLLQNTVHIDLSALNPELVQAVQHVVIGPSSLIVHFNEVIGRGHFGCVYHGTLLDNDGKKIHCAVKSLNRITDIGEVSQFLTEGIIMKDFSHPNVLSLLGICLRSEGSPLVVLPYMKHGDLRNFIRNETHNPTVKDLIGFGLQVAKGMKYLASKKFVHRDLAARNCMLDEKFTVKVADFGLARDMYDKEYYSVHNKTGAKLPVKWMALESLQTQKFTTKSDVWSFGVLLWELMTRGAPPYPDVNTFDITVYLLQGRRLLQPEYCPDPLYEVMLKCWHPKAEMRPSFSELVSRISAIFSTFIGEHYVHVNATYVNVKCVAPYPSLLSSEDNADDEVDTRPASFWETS
To be noted: 10 µM, n=1; kinase MET; read-out: Percent inhibition MET. The procedure, abridged:
as §1

Test [4] has as its target T4, panel of 203 kinases (Homo sapiens, UniProt P45983).
T4 construct: purchased DiscoverX (KINOMEscan)
To be noted: 10 µM, n=1; kinase JNK1; read-out: Percent inhibition JNK1. The procedure, abridged: as §1

In test [5] the target is T5, panel of 203 kinases (Homo sapiens, UniProt Q13554).
T5 construct: purchased DiscoverX (KINOMEscan)
To be noted: 10 µM, n=1; kinase CAMK2B; read-out: Percent inhibition CAMK2B. The method in brief:
as §1

Test [6] addresses T6, panel of 203 kinases (Homo sapiens, UniProt P31751).
T6 construct: purchased DiscoverX (KINOMEscan)
The conditions noted are these: 10 µM, n=1; kinase AKT2; read-out: Percent inhibition AKT2. The procedure, abridged:
as §1

Test [7] concerns the target T7, panel of 203 kinases (Homo sapiens, UniProt P41240).
T7 construct: purchased DiscoverX (KINOMEscan)
To be noted: 10 µM, n=1; kinase CSK; read-out: Percent inhibition CSK. The method in brief:
as §1

Test [8] concerns the target T8, panel of 203 kinases (Homo sapiens, UniProt P54764).
T8 construct: purchased DiscoverX (KINOMEscan)
To be noted: 10 µM, n=1; kinase EPHA4; read-out: Percent inhibition EPHA4. The method in brief:
as §1

In test [9] the target is T9, panel of 203 kinases (Homo sapiens, UniProt P21802).
T9 construct: purchased DiscoverX (KINOMEscan)
T9 sequence (P21802 22-821): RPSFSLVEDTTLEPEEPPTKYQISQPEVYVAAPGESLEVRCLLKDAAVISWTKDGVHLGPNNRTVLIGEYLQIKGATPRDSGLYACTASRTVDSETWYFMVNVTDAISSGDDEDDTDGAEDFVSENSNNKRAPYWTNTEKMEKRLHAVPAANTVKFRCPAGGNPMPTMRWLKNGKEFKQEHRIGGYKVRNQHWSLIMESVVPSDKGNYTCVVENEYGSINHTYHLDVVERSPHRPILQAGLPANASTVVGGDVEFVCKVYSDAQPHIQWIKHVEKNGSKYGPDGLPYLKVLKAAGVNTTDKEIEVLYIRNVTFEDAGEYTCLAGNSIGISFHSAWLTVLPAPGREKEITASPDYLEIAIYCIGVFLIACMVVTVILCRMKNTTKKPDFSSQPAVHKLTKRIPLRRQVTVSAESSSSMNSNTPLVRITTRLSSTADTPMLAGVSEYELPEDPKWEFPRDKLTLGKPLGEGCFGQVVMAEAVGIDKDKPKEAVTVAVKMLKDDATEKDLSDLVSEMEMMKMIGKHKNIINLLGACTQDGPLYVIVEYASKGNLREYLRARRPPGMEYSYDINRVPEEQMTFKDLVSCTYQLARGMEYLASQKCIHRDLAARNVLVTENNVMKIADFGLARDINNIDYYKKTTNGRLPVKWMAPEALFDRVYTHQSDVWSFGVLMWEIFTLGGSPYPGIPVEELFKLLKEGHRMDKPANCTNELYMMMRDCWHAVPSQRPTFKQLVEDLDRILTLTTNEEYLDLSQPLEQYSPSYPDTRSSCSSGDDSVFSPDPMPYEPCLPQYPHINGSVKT
To be noted: 10 µM, n=1; kinase FGFR2; read-out: Percent inhibition FGFR2. The procedure, abridged:
as §1

In test [10] the target is T10, panel of 203 kinases (Homo sapiens, UniProt O15146).
T10 construct: purchased DiscoverX (KINOMEscan)
T10 sequence (O15146 24-869): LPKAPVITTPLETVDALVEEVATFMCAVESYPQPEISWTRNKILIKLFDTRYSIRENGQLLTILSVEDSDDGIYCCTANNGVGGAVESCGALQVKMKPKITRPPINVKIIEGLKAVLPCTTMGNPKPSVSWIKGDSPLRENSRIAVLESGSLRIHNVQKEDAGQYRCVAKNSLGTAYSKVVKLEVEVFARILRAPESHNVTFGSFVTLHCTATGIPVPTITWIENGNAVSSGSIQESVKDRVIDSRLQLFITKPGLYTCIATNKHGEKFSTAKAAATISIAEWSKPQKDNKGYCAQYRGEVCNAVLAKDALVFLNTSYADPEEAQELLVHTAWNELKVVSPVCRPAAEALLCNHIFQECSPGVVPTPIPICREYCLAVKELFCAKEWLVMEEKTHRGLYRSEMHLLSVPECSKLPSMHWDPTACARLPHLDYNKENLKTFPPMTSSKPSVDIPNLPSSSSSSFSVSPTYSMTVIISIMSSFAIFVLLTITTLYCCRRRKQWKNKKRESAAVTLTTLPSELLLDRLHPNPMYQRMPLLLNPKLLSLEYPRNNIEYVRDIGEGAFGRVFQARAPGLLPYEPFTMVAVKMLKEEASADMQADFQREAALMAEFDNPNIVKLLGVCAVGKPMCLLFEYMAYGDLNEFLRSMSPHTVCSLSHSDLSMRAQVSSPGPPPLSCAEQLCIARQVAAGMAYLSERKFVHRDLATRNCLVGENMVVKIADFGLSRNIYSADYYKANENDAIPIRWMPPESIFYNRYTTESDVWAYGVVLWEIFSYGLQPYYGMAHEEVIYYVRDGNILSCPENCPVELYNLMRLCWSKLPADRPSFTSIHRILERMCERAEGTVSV
The conditions noted are these: 10 µM, n=1; kinase MUSK; read-out: Percent inhibition MUSK. The method in brief:
as §1

The target of test [11] is T11, panel of 203 kinases (Homo sapiens, UniProt Q13043).
T11 construct: purchased DiscoverX (KINOMEscan)
T11 sequence (Q13043 1-487): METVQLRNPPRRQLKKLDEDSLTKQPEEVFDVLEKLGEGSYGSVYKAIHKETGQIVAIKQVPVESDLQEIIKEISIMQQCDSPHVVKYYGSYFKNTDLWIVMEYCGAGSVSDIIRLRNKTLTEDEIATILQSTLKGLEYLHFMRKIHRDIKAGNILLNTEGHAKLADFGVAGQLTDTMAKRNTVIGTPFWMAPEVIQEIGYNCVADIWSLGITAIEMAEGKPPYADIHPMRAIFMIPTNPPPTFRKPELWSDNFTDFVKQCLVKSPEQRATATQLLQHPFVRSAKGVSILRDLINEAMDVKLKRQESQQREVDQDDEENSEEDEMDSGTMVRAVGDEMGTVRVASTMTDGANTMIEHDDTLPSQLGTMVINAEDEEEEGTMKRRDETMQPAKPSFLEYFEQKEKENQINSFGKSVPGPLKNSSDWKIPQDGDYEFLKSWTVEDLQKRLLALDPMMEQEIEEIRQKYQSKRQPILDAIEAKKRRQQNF
To be noted: 10 µM, n=1; kinase MST1; read-out: Percent inhibition MST1. The procedure, abridged:
as §1

In test [12] the target is T12, panel of 203 kinases (Homo sapiens, UniProt P49761).
T12 construct: purchased DiscoverX (KINOMEscan)
To be noted: 10 µM, n=1; kinase CLK3; read-out: Percent inhibition CLK3. The procedure, abridged: as §1

Test [13] deals with T13, panel of 203 kinases (Homo sapiens, UniProt P54646).
T13 construct: purchased DiscoverX (KINOMEscan)
The conditions noted are these: 10 µM, n=1; kinase AMPK-alpha2; read-out: Percent inhibition AMPK-alpha2. The procedure, abridged:
as §1

Test [14] has as its target T14, panel of 203 kinases (Homo sapiens, UniProt Q9UM73).
T14 construct: purchased DiscoverX (KINOMEscan)
The conditions noted are these: 10 µM, n=1; kinase ALK; read-out: Percent inhibition ALK. The procedure, abridged: as §1

Test [15] addresses T15, panel of 203 kinases (Homo sapiens, UniProt Q9UIK4).
T15 construct: purchased DiscoverX (KINOMEscan)
The conditions noted are these: 10 µM, n=1; kinase DAPK2; read-out: Percent inhibition DAPK2. The method in brief:
as §1

Test [16] addresses T16, panel of 203 kinases (Homo sapiens, UniProt O94804).
T16 construct: purchased DiscoverX (KINOMEscan)
To be noted: 10 µM, n=1; kinase LOK; read-out: Percent inhibition LOK. The procedure, abridged: as §1

T1 sequence (P06239 whole entry): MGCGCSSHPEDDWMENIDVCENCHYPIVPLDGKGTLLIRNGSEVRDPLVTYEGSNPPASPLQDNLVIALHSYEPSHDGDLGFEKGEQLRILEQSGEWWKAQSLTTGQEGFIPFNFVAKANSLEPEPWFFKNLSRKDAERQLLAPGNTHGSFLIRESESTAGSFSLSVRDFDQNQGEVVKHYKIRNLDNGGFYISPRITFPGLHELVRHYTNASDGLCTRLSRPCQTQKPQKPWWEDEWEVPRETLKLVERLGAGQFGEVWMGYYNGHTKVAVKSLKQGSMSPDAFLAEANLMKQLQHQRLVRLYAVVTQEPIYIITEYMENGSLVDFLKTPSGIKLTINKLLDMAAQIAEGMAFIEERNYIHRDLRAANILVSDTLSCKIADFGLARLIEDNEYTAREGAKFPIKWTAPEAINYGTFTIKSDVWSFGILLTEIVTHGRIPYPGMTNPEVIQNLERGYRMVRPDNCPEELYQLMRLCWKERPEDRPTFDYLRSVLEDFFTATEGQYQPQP
T4 sequence (P45983 whole entry): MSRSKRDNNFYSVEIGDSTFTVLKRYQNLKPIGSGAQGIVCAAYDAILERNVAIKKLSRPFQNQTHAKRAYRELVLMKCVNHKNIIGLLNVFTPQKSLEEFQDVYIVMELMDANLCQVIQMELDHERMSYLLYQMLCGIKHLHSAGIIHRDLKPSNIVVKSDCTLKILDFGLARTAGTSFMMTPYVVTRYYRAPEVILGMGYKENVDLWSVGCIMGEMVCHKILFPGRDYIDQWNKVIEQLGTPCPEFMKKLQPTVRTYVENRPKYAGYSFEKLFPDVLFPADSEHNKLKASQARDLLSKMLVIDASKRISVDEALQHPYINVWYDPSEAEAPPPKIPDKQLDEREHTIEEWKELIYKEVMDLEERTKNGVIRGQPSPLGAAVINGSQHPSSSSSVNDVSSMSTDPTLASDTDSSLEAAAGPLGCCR
T14 sequence (Q9UM73 19-1620): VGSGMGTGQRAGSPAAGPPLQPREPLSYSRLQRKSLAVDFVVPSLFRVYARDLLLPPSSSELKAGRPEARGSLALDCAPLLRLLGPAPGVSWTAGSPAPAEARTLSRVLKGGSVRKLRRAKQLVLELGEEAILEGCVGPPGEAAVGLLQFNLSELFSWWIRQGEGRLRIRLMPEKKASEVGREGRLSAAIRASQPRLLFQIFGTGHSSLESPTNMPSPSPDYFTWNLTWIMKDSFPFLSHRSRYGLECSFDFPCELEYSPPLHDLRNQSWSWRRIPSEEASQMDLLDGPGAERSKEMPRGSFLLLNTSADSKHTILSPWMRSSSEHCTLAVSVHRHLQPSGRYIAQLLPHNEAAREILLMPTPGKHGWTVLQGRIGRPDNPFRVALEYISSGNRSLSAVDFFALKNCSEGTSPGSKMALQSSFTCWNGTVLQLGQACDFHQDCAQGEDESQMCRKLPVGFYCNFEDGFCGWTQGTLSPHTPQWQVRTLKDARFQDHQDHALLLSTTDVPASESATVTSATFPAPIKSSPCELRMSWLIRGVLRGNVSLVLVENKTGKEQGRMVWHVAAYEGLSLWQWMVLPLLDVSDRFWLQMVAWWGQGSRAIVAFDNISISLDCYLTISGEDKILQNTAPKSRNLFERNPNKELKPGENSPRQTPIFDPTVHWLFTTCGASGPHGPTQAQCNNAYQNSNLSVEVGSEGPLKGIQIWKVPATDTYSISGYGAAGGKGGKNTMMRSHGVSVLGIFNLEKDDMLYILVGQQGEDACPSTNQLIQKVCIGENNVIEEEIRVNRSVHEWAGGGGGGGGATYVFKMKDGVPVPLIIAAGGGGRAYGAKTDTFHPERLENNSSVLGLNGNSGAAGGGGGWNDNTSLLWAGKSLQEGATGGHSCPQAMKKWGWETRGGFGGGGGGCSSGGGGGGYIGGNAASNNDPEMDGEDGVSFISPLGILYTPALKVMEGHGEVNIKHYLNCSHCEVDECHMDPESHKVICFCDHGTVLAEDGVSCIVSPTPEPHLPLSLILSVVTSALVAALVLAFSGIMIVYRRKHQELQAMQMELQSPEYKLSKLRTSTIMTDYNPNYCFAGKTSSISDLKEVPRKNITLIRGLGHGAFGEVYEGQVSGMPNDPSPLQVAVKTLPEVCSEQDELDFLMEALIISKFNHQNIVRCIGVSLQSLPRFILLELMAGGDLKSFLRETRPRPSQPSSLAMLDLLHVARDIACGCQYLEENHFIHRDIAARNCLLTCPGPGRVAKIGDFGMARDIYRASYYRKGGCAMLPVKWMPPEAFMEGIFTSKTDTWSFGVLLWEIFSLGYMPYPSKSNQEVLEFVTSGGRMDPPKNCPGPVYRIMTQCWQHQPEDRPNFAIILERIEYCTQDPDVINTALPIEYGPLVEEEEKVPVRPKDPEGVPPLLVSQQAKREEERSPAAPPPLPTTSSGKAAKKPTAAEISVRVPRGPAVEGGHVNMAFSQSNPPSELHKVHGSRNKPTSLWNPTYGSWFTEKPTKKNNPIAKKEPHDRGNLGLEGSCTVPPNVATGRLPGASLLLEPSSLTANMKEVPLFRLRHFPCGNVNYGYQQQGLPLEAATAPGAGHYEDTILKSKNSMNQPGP
T15 sequence (Q9UIK4 whole entry): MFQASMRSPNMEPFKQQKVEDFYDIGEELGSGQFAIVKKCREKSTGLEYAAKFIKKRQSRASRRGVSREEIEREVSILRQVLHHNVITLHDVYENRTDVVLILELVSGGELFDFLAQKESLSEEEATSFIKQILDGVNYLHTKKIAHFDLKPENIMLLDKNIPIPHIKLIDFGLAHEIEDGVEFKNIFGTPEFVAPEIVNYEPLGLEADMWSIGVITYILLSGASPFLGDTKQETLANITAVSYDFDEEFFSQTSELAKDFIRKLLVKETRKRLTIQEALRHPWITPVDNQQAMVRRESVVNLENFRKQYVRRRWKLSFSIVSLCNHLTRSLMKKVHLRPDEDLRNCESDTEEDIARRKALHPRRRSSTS

One may read the inhibition as the share of the control response that was lost under treatment. `c1ccc(COc2cccc(-c3ccnc4[nH]ccc34)c2)cc1` [Compound 9]: the inhibition at 10 µM on panel of 203 kinases [1], on panel of 203 kinases [2], on panel of 203 kinases [3], at panel of 203 kinases [4], at panel of 203 kinases [5] and at panel of 203 kinases [6] was 0% each time. Also, the inhibition at 10 µM at panel of 203 kinases [7], on panel of 203 kinases [8], on panel of 203 kinases [9], at panel of 203 kinases [10], on panel of 203 kinases [11] and on panel of 203 kinases [12] was 0% throughout. Moreover, the inhibition at 10 µM on panel of 203 kinases [13], on panel of 203 kinases [14], on panel of 203 kinases [15] and on panel of 203 kinases [16] was 0% each time.

In the case of `Clc1ccc(Nc2ncc(-c3ccccc3)s2)cc1` [Compound 10], the inhibition at 10 µM on panel of 203 kinases [1], at panel of 203 kinases [2], at panel of 203 kinases [3], at panel of 203 kinases [4], on panel of 203 kinases [5] and at panel of 203 kinases [6] was 0% throughout. The inhibition at 10 µM on panel of 203 kinases [7], at panel of 203 kinases [8], at panel of 203 kinases [9], on panel of 203 kinases [10], on panel of 203 kinases [11] and on panel of 203 kinases [12] was 0% each time. In addition, the inhibition at 10 µM at panel of 203 kinases [13], on panel of 203 kinases [14], on panel of 203 kinases [15] and at panel of 203 kinases [16] was 0% throughout.

As to `Nc1ncc2c(-c3ccncc3)c[nH]c2n1` [Compound 11], the inhibition at 10 µM on panel of 203 kinases [1] amounted to 0%; on panel of 203 kinases [2], 0%; at panel of 203 kinases [3], 0%; at panel of 203 kinases [4], 77.1%; on panel of 203 kinases [5] it was 85.7%; at panel of 203 kinases [6] it was 0%. For the same compound, the inhibition at 10 µM was found to be 0% on panel of 203 kinases [7]; 0% on panel of 203 kinases [8]; 0% at panel of 203 kinases [9]; 93.9% on panel of 203 kinases [10]; 0% at panel of 203 kinases [11]; 84.9% at panel of 203 kinases [12]. The inhibition at 10 µM on panel of 203 kinases [13], at panel of 203 kinases [14], on panel of 203 kinases [15] and on panel of 203 kinases [16] was 0% each time.
